Source: ChEMBL document CHEMBL1201862, “PubChem BioAssay data set” (2004)
Active and inactive are the calls of the source.

Columns and labels:
[1] = biological target: T1, Apoptotic protease-activating factor 1 (Homo sapiens, UniProt O14727); type: functional
T1 sequence (O14727 whole entry): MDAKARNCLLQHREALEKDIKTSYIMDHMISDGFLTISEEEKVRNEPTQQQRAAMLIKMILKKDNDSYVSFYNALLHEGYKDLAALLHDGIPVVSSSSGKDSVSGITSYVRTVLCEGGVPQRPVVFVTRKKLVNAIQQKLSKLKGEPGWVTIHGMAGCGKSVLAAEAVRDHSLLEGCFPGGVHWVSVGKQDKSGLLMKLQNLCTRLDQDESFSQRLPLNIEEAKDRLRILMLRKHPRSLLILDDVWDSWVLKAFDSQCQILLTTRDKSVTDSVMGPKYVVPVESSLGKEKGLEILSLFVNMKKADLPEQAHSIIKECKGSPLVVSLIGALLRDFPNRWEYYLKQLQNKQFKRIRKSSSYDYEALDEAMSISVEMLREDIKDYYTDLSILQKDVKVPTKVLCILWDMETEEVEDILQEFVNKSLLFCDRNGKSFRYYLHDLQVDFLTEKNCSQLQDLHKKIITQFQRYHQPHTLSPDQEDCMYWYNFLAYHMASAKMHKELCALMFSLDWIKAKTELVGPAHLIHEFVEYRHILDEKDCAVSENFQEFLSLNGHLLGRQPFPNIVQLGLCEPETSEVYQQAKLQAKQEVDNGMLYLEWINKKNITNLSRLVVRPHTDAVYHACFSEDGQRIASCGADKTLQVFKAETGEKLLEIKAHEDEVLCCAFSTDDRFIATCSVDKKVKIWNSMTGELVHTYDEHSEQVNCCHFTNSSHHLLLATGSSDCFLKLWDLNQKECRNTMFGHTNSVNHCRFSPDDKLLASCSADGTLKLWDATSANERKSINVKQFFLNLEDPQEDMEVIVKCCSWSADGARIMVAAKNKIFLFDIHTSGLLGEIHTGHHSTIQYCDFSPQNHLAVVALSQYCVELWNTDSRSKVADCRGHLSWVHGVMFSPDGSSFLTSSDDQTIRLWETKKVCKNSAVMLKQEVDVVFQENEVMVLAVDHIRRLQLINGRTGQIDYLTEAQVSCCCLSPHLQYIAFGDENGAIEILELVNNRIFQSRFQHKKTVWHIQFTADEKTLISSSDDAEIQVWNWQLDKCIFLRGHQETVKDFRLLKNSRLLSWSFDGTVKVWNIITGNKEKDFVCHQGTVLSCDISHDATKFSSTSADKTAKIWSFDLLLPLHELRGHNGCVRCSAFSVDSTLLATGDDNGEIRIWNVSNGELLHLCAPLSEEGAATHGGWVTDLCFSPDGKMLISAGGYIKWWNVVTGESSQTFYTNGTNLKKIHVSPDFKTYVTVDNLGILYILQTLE

[2] = biological target: T2, Ubiquitin-conjugating enzyme E2 N (Homo sapiens, UniProt P61088); type: functional
T2 sequence (P61088 whole entry): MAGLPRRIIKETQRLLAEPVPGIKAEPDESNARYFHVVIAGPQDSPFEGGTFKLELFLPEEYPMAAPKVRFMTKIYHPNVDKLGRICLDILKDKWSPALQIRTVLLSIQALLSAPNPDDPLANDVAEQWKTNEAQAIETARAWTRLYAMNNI

[3] = biological target: T2, Ubiquitin-conjugating enzyme E2 N; type: functional; remark: listed apart in the source
SUMO-activating enzyme [4] = biological target: T3, SUMO-activating enzyme (Homo sapiens, UniProt Q9UBT2); assay: SUMOylation inhibitor hit validation, confirmation, SUMOylation inhibitor project, biochemical, AlphaScreen (AID 2018); type: functional
[5] = biological target: T1, Apoptotic protease-activating factor 1; assay: SAR analysis of small molecule inhibitors of Apaf-1 in a Fluorescent assay.; type: functional; conditions: read-out: IC50_Mean
[6] = biological target: 72 kDa type IV collagenase (Homo sapiens, UniProt P08253); assay: Dose Response validation of uHTS RPN11 inhibitor hits using a MMP-2 Fluorescence assay.; type: functional
[7] = biological target: 26S proteasome non-ATPase regulatory subunit 14 (Homo sapiens, UniProt O00487); assay: inhibition of proteasome subunit RPN11 – biochemical, fluorescence polarization, uHTS hits, confirmation (AID 602368); type: functional
Prothrombin = Prothrombin (Bos taurus, UniProt P00735); assay: thrombin inhibition, dose response, biochemical, fluorescence polarization, uHTS hits (AID 602369); type: functional
SUMO-activating enzyme [8] = biological target: T3, SUMO-activating enzyme; assay: inhibitors of in vitro SUMOylation cascade, primary screen, biochemical, HTRF, uHTS (AID 2006); type: protein-complex assay
[9] = biological target: T4, DNA repair protein RAD52 homolog (Homo sapiens, UniProt P43351); type: functional, biochemical
T4 sequence (P43351 whole entry): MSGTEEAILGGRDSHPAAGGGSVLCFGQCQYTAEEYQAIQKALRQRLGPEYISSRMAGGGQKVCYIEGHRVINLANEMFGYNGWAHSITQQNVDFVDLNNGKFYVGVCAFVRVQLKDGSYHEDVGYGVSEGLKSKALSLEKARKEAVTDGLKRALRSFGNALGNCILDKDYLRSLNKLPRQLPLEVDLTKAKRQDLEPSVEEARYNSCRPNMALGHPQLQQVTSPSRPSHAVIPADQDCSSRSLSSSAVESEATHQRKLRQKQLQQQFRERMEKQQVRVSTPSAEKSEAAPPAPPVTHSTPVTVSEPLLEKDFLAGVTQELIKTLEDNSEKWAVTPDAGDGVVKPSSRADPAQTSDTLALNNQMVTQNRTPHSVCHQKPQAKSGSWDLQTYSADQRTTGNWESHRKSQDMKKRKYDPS

Bcl-2-related protein A1 = biological target: T5, Bcl-2-related protein A1 (Mus musculus, UniProt Q07440); type: functional;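 also: confirmatory dose–response counterscreen on Bfl-1, used to check hits from a UBC13 polyubiquitin inhibitor campaign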
T5 sequence (Q07440 whole entry): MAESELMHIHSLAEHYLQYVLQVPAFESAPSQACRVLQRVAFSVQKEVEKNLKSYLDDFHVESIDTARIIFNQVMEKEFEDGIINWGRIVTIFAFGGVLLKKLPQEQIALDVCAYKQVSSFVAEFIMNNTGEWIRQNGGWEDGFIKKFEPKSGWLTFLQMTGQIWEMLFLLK

[10] = HeLa cell cytotoxicity, dose response, cytotoxicity control for MgcRacGAP inhibitor project (AID 624300); type: functional
[11] = biological target: E3 ubiquitin-protein ligase XIAP (Homo sapiens, UniProt P98170); assay: Counter Screen using XIAP-Bir3 for Chemical Antagonists of Bir1/2 domains of IAP-family anti-apoptotic proteins. [Related pubchem assays (depositor defined):AID1018, AID1449, AID1514, AID1638, AID1749, AID1750, AID488957, AID488963]
[12] = biological target: T6, Rac GTPase-activating protein 1 (Homo sapiens, UniProt Q9H0H5); assay: MgcRacGAP GTPase-activating activity inhibitors, confirmation, biochemical, ADP Hunter fluorescence, primary and confirmatory (AID 624330); type: functional
T6 sequence (Q9H0H5 whole entry): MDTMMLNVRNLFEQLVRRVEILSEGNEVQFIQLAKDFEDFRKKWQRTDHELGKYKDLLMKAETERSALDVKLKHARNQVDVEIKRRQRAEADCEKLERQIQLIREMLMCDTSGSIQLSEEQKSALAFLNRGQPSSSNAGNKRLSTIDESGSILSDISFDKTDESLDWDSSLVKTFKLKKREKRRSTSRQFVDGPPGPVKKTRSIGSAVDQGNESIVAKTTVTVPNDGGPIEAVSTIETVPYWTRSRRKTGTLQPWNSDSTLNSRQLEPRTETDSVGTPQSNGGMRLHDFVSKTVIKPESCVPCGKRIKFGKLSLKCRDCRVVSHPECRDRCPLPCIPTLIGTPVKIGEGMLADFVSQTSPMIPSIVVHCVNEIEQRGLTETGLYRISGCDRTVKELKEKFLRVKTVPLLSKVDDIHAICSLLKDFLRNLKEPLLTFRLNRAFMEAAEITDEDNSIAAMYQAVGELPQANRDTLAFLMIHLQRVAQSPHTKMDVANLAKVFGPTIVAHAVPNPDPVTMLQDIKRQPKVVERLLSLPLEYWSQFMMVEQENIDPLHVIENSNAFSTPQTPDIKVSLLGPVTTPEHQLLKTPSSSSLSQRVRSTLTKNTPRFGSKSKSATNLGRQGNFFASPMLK

[13] = biological target: Glycogen synthase kinase-3 beta (Homo sapiens, UniProt P49841); assay: GSK3beta kinase inhibitors, dose response, biochemical, microfluidics, dry powder samples, set 2 (AID 623989); type: functional
[14] = biological target: Glycogen synthase kinase-3 alpha (Homo sapiens, UniProt P49840); assay: human GSK3 alpha kinase inhibition, dose response, selectivity assay for GSK3beta inhibitor project, biochemical, microfluidics, dry powder samples, set 2 (AID 623978); type: functional
[15] = biological target: Cyclin-dependent kinase 19 (Homo sapiens, UniProt Q9BWU1); assay: Navigating the Kinome. Panel member name: CDC2L6; type: functional
[16] = biological target: Cell division cycle 7-related protein kinase (Homo sapiens, UniProt O00311); type: functional;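 also: value obtained from a kinome-wide kinase panel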
Chain of Cell division cycle 7-related protein kinase (O00311 whole entry): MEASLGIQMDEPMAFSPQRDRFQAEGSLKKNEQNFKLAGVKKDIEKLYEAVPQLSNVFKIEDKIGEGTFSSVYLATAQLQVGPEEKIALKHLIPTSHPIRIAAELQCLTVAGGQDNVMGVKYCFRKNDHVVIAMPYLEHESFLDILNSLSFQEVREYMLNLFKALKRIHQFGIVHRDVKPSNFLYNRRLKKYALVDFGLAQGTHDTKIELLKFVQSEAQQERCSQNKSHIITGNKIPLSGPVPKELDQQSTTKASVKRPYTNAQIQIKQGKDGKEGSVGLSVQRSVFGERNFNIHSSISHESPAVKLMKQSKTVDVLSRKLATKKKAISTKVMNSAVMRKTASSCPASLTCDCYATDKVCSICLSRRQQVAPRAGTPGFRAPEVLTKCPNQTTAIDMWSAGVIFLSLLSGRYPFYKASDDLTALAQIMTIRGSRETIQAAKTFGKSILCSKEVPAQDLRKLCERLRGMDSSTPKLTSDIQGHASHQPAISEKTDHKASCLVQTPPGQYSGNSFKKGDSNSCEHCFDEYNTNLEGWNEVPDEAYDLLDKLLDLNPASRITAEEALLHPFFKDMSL

T3 sequence (Q9UBE0 whole entry): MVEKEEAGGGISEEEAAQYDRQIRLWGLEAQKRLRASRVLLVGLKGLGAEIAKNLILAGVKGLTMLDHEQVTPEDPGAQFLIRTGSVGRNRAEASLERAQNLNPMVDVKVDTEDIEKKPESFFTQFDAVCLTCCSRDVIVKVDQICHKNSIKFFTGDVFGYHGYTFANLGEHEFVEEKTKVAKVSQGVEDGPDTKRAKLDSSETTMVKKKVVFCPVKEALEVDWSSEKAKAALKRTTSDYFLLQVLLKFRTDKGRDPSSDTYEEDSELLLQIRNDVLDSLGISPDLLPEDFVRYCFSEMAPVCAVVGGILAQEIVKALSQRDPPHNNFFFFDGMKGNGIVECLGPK
T3 sequence (Q9UBT2 whole entry): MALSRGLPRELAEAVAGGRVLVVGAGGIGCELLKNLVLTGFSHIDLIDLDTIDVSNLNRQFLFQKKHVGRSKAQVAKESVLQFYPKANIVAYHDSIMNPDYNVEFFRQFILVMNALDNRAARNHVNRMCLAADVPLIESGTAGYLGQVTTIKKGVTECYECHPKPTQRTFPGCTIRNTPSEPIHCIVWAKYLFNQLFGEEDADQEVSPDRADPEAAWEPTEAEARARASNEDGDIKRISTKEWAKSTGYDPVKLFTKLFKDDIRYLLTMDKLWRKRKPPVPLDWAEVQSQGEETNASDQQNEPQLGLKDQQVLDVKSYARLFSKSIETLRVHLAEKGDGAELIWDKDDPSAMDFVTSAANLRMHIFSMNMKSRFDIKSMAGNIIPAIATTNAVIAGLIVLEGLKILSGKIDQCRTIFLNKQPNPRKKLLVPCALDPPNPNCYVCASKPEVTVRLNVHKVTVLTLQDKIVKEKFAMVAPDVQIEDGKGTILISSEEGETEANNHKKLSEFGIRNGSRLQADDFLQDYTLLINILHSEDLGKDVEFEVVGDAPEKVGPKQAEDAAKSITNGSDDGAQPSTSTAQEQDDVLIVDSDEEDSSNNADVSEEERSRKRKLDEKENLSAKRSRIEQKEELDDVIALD
Chain of E3 ubiquitin-protein ligase XIAP (P98170 whole entry): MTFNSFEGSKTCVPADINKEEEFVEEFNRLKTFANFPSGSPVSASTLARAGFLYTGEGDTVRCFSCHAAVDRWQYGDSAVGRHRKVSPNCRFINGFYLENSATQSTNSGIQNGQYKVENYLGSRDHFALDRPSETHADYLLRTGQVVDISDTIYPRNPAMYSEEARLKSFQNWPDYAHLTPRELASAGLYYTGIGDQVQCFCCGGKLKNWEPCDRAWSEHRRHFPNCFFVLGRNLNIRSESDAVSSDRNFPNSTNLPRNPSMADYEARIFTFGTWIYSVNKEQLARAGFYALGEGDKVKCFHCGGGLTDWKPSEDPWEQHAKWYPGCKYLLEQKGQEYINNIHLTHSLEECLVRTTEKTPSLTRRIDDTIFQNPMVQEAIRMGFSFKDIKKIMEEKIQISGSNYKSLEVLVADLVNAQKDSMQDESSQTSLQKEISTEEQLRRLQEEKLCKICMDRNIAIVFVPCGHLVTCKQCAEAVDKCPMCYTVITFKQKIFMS
Chain of Glycogen synthase kinase-3 alpha (P49840 whole entry): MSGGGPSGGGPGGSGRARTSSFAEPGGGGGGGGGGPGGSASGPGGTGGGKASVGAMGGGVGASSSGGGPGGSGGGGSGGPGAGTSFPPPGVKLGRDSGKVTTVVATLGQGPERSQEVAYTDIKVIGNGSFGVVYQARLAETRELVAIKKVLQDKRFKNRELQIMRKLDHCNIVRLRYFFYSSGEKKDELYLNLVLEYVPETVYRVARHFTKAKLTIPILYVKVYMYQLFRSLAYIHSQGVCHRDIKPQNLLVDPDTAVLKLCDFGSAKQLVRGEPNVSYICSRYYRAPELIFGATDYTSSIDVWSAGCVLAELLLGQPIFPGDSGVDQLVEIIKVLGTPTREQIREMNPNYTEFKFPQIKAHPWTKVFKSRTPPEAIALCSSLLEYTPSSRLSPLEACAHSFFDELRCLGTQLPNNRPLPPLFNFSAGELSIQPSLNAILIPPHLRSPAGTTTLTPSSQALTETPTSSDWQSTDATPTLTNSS
Chain of Glycogen synthase kinase-3 beta (P49841 whole entry): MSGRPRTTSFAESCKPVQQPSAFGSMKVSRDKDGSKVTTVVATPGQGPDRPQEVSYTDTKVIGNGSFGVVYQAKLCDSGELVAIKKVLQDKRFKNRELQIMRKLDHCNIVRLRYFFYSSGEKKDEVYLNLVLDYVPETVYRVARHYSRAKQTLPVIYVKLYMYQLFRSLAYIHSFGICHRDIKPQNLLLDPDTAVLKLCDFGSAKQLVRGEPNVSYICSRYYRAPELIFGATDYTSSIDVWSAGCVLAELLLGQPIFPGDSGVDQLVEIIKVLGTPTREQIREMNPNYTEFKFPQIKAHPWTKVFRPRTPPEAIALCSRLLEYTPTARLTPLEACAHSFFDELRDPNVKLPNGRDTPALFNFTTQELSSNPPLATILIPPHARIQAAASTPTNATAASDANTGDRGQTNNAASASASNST
Chain of Cyclin-dependent kinase 19 (Q9BWU1 whole entry): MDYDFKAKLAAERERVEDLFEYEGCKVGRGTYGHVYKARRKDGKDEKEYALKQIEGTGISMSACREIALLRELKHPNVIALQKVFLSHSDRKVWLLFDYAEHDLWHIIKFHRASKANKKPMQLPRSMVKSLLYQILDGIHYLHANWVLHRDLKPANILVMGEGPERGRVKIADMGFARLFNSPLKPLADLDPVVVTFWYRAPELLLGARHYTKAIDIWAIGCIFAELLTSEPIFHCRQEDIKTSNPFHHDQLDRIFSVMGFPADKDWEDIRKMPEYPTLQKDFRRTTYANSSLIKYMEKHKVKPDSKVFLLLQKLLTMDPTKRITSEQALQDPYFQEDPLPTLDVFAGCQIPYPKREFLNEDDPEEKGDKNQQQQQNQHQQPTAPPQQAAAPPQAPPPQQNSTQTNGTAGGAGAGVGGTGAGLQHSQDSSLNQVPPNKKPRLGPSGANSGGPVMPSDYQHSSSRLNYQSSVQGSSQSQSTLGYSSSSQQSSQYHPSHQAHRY
Chain of 26S proteasome non-ATPase regulatory subunit 14 (O00487 whole entry): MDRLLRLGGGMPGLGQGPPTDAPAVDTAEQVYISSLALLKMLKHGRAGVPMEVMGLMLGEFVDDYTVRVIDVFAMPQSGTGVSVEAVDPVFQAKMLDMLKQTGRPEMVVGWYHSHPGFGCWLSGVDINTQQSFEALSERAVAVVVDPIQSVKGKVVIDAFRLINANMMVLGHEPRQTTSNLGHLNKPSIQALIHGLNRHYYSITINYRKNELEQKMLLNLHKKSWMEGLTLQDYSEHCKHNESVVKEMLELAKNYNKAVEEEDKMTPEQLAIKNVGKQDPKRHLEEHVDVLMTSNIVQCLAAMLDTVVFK
Chain of 72 kDa type IV collagenase (P08253 whole entry): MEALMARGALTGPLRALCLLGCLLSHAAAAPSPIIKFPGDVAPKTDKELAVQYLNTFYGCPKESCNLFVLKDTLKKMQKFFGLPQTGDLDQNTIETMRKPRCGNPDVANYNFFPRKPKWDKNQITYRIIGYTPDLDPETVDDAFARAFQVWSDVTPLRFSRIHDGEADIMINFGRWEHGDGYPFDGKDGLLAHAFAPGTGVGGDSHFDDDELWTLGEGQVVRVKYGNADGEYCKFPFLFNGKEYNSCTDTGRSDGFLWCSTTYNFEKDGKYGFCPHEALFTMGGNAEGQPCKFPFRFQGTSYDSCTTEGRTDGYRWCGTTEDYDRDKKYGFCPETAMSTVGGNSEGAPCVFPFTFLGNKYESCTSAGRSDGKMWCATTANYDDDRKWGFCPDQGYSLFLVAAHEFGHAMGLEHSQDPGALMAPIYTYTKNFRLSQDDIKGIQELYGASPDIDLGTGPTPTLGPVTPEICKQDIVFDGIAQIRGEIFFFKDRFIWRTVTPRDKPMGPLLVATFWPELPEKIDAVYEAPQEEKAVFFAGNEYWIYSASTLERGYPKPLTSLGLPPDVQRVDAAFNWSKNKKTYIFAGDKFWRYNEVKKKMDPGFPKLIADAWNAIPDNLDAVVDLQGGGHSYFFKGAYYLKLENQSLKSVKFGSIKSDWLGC

Structure (SMILES): CCN(CC)CCOC(=O)c1ccc(N/C=C(/C#N)c2nc(-c3ccc(OC)c(OC)c3)cs2)cc1
- IC50 [1]: 4.09 µM (active)
- IC50 [2]: 3.76 µM (active)
- IC50 [3]: 3.02 µM (active)
- IC50 (SUMO-activating enzyme [4]): 7.12 µM (active)
- IC50 [5]: 3.93 µM (active)
- IC50 [6]: > 100 µM (inactive)
- IC50 [7]: 23.2 µM (active)
- IC50 (Prothrombin): 28.7 µM (active)
- IC50 (SUMO-activating enzyme [8]): 11.7 µM (active)
- AC50 [9]: 10.9 µM (active)
- IC50 (Bcl-2-related protein A1): 3.44 µM (active)
- CC50 [10]: 92.3 µM (active)
- IC50 [11]: > 20 µM (inactive)
- IC50 [12]: 32.4 µM (active)

Structure (SMILES): COC(=O)c1ccc(CSc2ccc3nnc(-c4ccc(F)cc4)n3n2)o1
- AC50 [13]: 0.509 µM (active)
- AC50 [14]: 1.87 µM (active)

Structure (SMILES): CN(C)CCNC(=O)c1ccc(-c2ccnc(Nc3cccc(F)c3)n2)cc1
- Ki [15]: 31.6 µM (active)
- Ki [16]: 0.251 µM (active)
